Measurements published in the Bradley open melting point set (2014).

Row | SMILES | melting point [°C]
1 | CC/N=c1/nc(Cl)[nH]/c(=N\C(C)C)[nH]1 [Atrazine] | 177
2 | O=Cc1ccccc1 [Benzaldehyde] | -56
3 | NC(=O)c1ccccc1 [Benzamide] | 127
4 | c1ccc2c(c1)cc1ccc3cccc4ccc2c1c34 [Benzo[a]pyrene] | 176
5 | c1ccc2c(c1)ccc1cc3c(ccc4ccccc43)cc12 [Benzo[k]tetraphene] | 266
6 | N#Cc1ccccc1 [Benzonitrile] | -13
7 | O=C(OCc1ccccc1)c1ccccc1 [Benzyl Benzoate] | 21
8 | NCc1ccccc1 [Benzylamine] | 10
9 | CC(=O)C(C)=O [Biacetyl] | -3
10 | O=C(O)CCCC[C@@H]1SC[C@@H]2NC(=O)N[C@@H]21 [Biotin] | 232
11 | Oc1ccccc1-c1ccccc1 [Biphenyl-2-ol] | 57
12 | [2H]C([2H])([2H])S(=O)C([2H])([2H])[2H] [Bis[(~2~H_3_)methyl] sulfoxide] | 18.4
13 | ClCBr [Bromo(chloro)methane] | -88
14 | CCBr [Bromoethane] | -119
15 | CCCCN1CCCCC1C(=O)Nc1c(C)cccc1C (stereo not drawn) [Bupivacaine] | 108
16 | OCC#CCO [But-2-yne-1,4-diol] | 57
17 | NCCCCN [Butane-1,4-diamine] | 27.5
18 | OCCCCO [Butane-1,4-diol] | 18
19 | CCCCC1(CC)C(=O)NC(=O)NC1=O [Butethal] | 128
20 | CCCCOC(=O)c1ccc(O)cc1 [Butyl 4-hydroxybenzoate] | 69
21 | CCCCC1CCCCC1 [Butylcyclohexane] | -75
22 | Cn1c(=O)c2c(ncn2C)n(C)c1=O [Caffeine] [listing 1 of 2 here] | 236

Row | SMILES | melting point [°C]
23 | Cn1c(=O)c2c(ncn2C)n(C)c1=O [Caffeine] [listing 2 of 2 here] | 238
24 | C[C@H](CS)C(=O)N1CCC[C@H]1C(=O)O [Captopril] | 106
25 | NC(=O)N1c2ccccc2C=Cc2ccccc21 [Carbamazepine] [listing 1 of 2 here] | 190
26 | NC(=O)N1c2ccccc2C=Cc2ccccc21 [Carbamazepine] [listing 2 of 2 here] | 190
27 | NC(CN(Cc1ccccc1)c1ccccc1)=NO [Cetoxime] | 107
28 | N=C(NCCCCCCNC(=N)NC(=N)Nc1ccc(Cl)cc1)NC(=N)Nc1ccc(Cl)cc1 [Chlorhexidine] | 134
29 | FC(F)Cl [Chloro(difluoro)methane] | -146
30 | O=C(O)CCl [Chloroacetic acid] | 63
31 | CCCNC(=O)NS(=O)(=O)c1ccc(Cl)cc1 [Chlorpropamide] | 128
32 | COc1cc(N)c(Cl)cc1C(=O)NC1CCN(CCCOc2ccc(F)cc2)CC1OC (stereo not drawn) [Cisapride] | 110
33 | CC[C@H]1OC(=O)[C@H](C)[C@@H](O[C@@H]2C[C@](C)(OC)[C@H](O)[C@@H](C)O2)[C@H](C)[C@@H](O[C@@H]2O[C@H](C)C[C@H](N(C)C)[C@H]2O)[C@](C)(OC)C[C@@H](C)C(=O)[C@H](C)[C@@H](O)[C@]1(C)O [Clarithromycin] | 218
34 | O=C1CN=C(c2ccccc2Cl)c2cc([N+](=O)[O-])ccc2N1 [Clonazepam] | 238
35 | c1cc2ccc3ccc4ccc5ccc6ccc1c1c2c3c4c5c61 [Coronene] | 438
36 | C1CCCCCCCCCCC1 [Cyclododecane] | 61
37 | NC1CCCCC1 [Cyclohexanamine] | -18
38 | [C-]#[N+]C1CCCCC1 [Cyclohexyl isocyanide] | 6
39 | c1ccc(C2CCCCC2)cc1 [Cyclohexylbenzene] | 5
40 | O=P1(N(CCCl)CCCl)NCCCO1 (stereo not drawn) [Cyclophosphamide] | 43
41 | NS(=O)(=O)c1cc2c(cc1Cl)NC(C1CC3C=CC1C3)NS2(=O)=O (stereo not drawn) [Cyclothiazide] | 228
42 | Nc1ccn([C@@H]2O[C@H](CO)[C@@H](O)[C@H]2O)c(=O)n1 [Cytidine] | 210
43 | OC[C@@H](O)[C@@H](O)[C@@H](O)CO [D-Ribitol] | 102
